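96-well plates; 48 h exposure; 5 concentrations. Endpoints by linear interpolation between flanking doses. Not reached: highest tested concentration assigned. The concentration for 50% growth inhibition is given as GI50.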 Active and inactive are the calls of the source. Cut-off read from the data, not from the text of the source: active = GI50 up to about 1.1 µM and inactive = higher.
Key:
Experiment in all cases: inhibition of tumour cell growth, NCI panel, 48 h
[1] = test system: A498
[2] = test system: A549
[3] = test system: CCRF-CEM
[4] = test system: COLO 205
[5] = test system: EKVX
[6] = test system: HT-29
[7] = test system: LOX IMVI
[8] = test system: NCI-H460
[9] = test system: OVCAR-8
[10] = test system: RXF 393
[11] = test system: SF-268
[12] = test system: SK-MEL-28
[13] = test system: SK-MEL-2
[14] = test system: T47D
[15] = test system: UACC-62
[16] = test system: UO-31
[17] = test system: Hs-578T
[18] = test system: IGROV-1
[19] = test system: UACC-257

Measured: GI50

Nc1cc2nc(-c3ccccc3)cn2cn1
inactive: [1] 27.9 µM | [2] > 100 µM | [3] 86.5 µM | [4] > 100 µM | [5] 29.3 µM | [6] 47.2 µM | [7] 84.5 µM | [8] 99.1 µM | [9] > 100 µM | [10] 50.9 µM | [11] > 100 µM | [12] > 100 µM | [13] > 100 µM | [14] > 100 µM | [15] 54.6 µM | [16] 32.4 µM

CN(CCc1ccc(Br)cc1)CCN1CCCCC1
inactive: [1] 21 µM | [2] 43.4 µM | [3] 16.4 µM | [4] 16.3 µM | [5] > 100 µM | [6] 12.7 µM | [17] 19.7 µM | [18] 36.4 µM | [7] 28.6 µM | [8] 37.9 µM | [9] 31.4 µM | [10] 36.4 µM | [11] 65.3 µM | [12] 20.4 µM | [13] 24.4 µM | [14] 39.7 µM | [19] 36.3 µM | [16] 36.1 µM

CCOc1ccc(N/C(=C(/C(Cl)=C(/Cl)NC(C)(C)C)[N+](=O)[O-])n2nnc3ccccc32)cc1
inactive: [1] 91.6 µM | [2] 70.3 µM | [3] 12.7 µM | [4] 21.1 µM | [5] 39 µM | [6] 35.1 µM | [17] 11 µM | [8] 76.9 µM | [9] 16.6 µM | [10] 20.1 µM | [11] 16.7 µM | [12] 16.4 µM | [13] 31.6 µM | [14] 15.5 µM | [19] 53.7 µM | [15] 22.8 µM | [16] 29.9 µM

Nc1cc(O)c2c(c1O)C(=O)C=CC2=O
inactive: [1] 22.2 µM | [2] 19.6 µM | [3] 2.19 µM | [4] 6.62 µM | [5] 17.9 µM | [6] 4.55 µM | [17] 26.5 µM | [18] 15.2 µM | [7] 5.58 µM | [8] 9.57 µM | [9] 8.24 µM | [10] 6.93 µM | [11] 22.9 µM | [12] 17.7 µM | [13] 14 µM | [14] 13.2 µM | [19] 14.5 µM | [15] 11.4 µM | [16] 10.9 µM

From ChEMBL document CHEMBL1201862, “PubChem BioAssay data set” (2004)
